Data taken from US8609173B2, “Compositions comprising sweetness enhancers and methods of making them” (Senomyx Inc., priority 2008, dated 2013).

Key:
External panelists [1] = assay: Paired comparison test (2-alternative forced choice), Example 3B, sucrose; assay type: in vivo, Human; conditions: 9% sucrose chosen, vs 6% Sucrose + 10 ppm (35.29 μM) compound; n = 28
Experimental: Several types of sensory tests were used to determine the efficacy of 5-(neopentyloxy)-1H-benzo[c][1,2,6]thiadiazin-4-amino-2,2-dioxide in enhancing sweetness of sucrose. Two types of tests were conducted: • 1) Sensory scaling tests were performed using a 15-point percent sucrose equivalence scale for sweetness in order to evaluate sweetness enhancement 5-(neopentyloxy)-1H-benzo[c][1,2,6]thiadiazin-4-amino-2,2-dioxide in sucrose, or in fructose. • 2) Paired comparison tests (2-alternative forced choice difference tests) were used to determine sweetness equivalence for solutions of sucrose vs. 5-(neopentyloxy)-1H-benzo[c][1,2,6]thiadiazin-4-amino-2,2-dioxide or buffer vs. 5-(neopentyloxy)-1H-benzo[c][1,2,6]thiadiazin-4-amino-2,2-dioxide. Stimuli:
Panelists performed 2 directional paired comparison tests to determine which sample was sweeter. The test compared the sweetness intensity of 9% sucrose to that of 6% sucrose+10 ppm (35.29 μM) 5-(neopentyloxy)-1H-benzo[c][…]thiadiazin-4-amino-2,2-dioxide. Panelists were also to comment on the difficulty of the test and if any off tastes were perceived. Samples were completely randomized.

Panelists [2] = assay: Paired comparison taste test, strawberry yogurt; assay type: in vivo, Human
Experimental: Two strawberry yogurt compositions were prepared and then mixed with plain, nonfat yogurt. One strawberry fruit composition was sweetened with a mixture of sucrose and fructose, and a second strawberry fruit composition was sweetened with ⅓ less sucrose and 3 ppm of 3-(4-amino-2,2-dioxide-1H-benzo[c][1,2,6]thiadiazin-5-yloxy)-2′,2′-dimethyl-N-propylpropanamide. The compositions of the two fruit compositions are as follows:
Panelists evaluated two yogurt compositions in a paired comparison taste test procedure and were instructed to select the sweeter of the two samples. They perform a total of three paired comparison tests each containing the following samples: Strawberry Yogurt with 100% Sucrose vs. Strawberry Yogurt with 66.6% Sucrose+3 ppm (8.47 μM) 3-(4-amino-2,2-dioxide-1H-benzo[c][1,2,6]thiadiazin-5-yloxy)-2′,2′-dimethyl-N-propylpropanamide.
Strawberry Yogurt Preparation: 1000 g batches of finished strawberry yogurt was made by adding 16% (by weight) strawberry fruit prep to 84% (by weight) plain nonfat yogurt and mixing with a wire whip until homogenous, a minimum of five minutes. The Compound A was dissolved into a 0.10% concentration level in propylene glycol and then added to the strawberry yogurt and mixed with a wire whip until homogenous, about 5 minutes.

Panelists [3] = assay: Paired comparison human taste test, frosted flakes cereal; assay type: in vivo
Experimental: Frosted Flakes cereals were prepared using the following ingredients and evaluated for sweetness. The sugar frosting contained a reduced amount of sucrose (compared to the “100% sucrose” sugar coated flake cereal) and 15 ppm of 3-(4-amino-2,2-dioxide-1H-benzo[c][1,2,6]thiadiazin-5-yloxy)-2′,2′-dimethyl-N-propylpropanamide.
A Kitchen Aide mixer is equipped with a wire whip attachment and used for mixing sugar and tapioca dextrin. Mix for 5 minutes. Dissolve gum arabic in water using a magnetic stir bar and stir plate. Mix for 1 minute. Add the remaining dry ingredients and compound (if necessary) and heat until the solution reaches 230° F. for 1 minute. The compound was solubilized in ethanol to a 0.30% concentration level before adding to the syrup; this gave a better homogeneity throughout the syrup.
Place weighed amount of corn flakes in the tumbler. Add desired amount of syrup as soon as the syrup is ready. Tumble for 30 minutes while heating the flakes with a heat gun. Further dry the flakes in the convection oven for 200° F. for 50 minutes.
Panelists evaluated the two cereal samples in a paired comparison taste test procedure and were instructed to select the sweeter of the two samples.

Panelists [4] = assay: Paired comparison taste test, cola composition; assay type: in vivo, Human; conditions: for Sweetness comparison (conclusion): p>0.10; for Sample selected as sweeter by panelists, Total: vs Cola with 100% Sucrose, n = 39
Experimental: Cola compositions were prepared using the following ingredients and evaluated for sweetness and/or lingering taste.
The cola emulsion, above, contains the ingredients below:
Panelists evaluated two solutions in a paired comparison taste test procedure and were instructed to select the sweeter of the two samples.

Panelists [5] = assay: Paired comparison human taste test, chocolate milk; assay type: in vivo
Experimental: Chocolate beverage powder can be prepared using, for example, the following ingredients and reconstituted in milk.
A KitchenAide mixer is equipped with a wire whip attachment and used for mixing sugar and salt for 5 seconds. Lecithin is added and the resulting mixture is mixed for an additional 5 seconds. Cocoa, maltodextrin, and vanillin are added and the mixture is mixed for another 10 seconds.
Chocolate milk preparations were prepared by combining a chocolate beverage mixture with milk and the appropriate amount of sugar, or sugar and 3-(4-amino-2,2-dioxide-1H-benzo[c][1,2,6]thiadiazin-5-yloxy)-2′,2′-dimethyl-N-propylpropanamide. 75.0 grams of Full Sugar Chocolate Beverage Powder was mixed into 250 mls of cold (40° F.) 2% lowfat milk and mixed with a wire whip until dissolved. 45.5 grams of the 50% Sugar Chocolate Beverage Powder was mixed into 250 mls of cold (40° F.) 2% lowfat milk and mixed with a wire whip until the powder was dissolve. The Compound A was dissolved into a 0.10% concentration level in propylene glycol and added to the chocolate milk, mixed with a wire whip until homogenous, about 2 minutes.

External panelists [6] = assay: Line scale sensory test, Example 6, fructose as sweetener, pH 7.1; assay type: in vivo, Human; set-up: Average Sweetness / Average Bitterness: scale not given here
Experimental: Sensory evaluations were performed using fructose as the sweetener and 3-(4-amino-2,2-dioxide-1H-benzo[c][1,2,6]thiadiazin-5-yloxy)-2′,2′-dimethyl-N-propylpropanamide as the sweetness enhancer, using methods similar to those using sucrose, above. […]

[7] = 33% Reduced Sucrose Frosted Flakes + 15 ppm compound chosen, 14 panelists

## OC[C@H]1O[C@@](CO)(O[C@H]2O[C@H](CO)[C@@H](O)[C@H](O)[C@H]2O)[C@@H](O)[C@@H]1O [Sucrose, sucrose]
External panelists [1]
  Sample selected as more sweet by panelists, Total: 9

## CCCNC(=O)C(C)(C)COc1cccc2c1C(N)=NS(=O)(=O)N2 [3-(4-amino-2,2-dioxide-1H-benzo[c][1,2,6]thiadiazin-5-yloxy)-2′,2′-dimethyl-N-propylpropanamide]
Panelists [2]; Strawberry Yogurt with 4.5% Sucrose + 3 ppm (8.47 μM) compound chosen, vs 6.7% Sucrose, n = 72
  Sample selected as sweeter by panelists, Total: 33
Panelists [2]; Strawberry Yogurt with 66.6% Sucrose + 3 ppm (8.47 μM) compound vs 100% Sucrose, p>0.10
  Sweetness comparison (conclusion): not significantly different in sweetness
Panelists [3]; [7]
  Sample selected as sweeter by panelists, Test 1: 6
  Sample selected as sweeter by panelists, Test 2: 9
  Sample selected as sweeter by panelists, Test 3: 9
Panelists [3]; 33% Reduced Sucrose Frosted Flakes + 15 ppm compound chosen, n = 42
  Sample selected as sweeter by panelists, Total: 24
Panelists [3]; 33% Reduced Sucrose Frosted Flakes + 15 ppm compound vs 100% Sucrose Frosted Flakes
  Sweetness comparison (conclusion): not significantly different in sweetness
Panelists [4]; 60% sucrose cola + 3 ppm (8.47 μM) compound vs 100% sucrose cola
  Sweetness comparison (conclusion): no significant difference in sweetness
Panelists [4]; 66% sucrose cola + 3.19 ppm (8.47 μM) compound vs 100% sucrose cola
  Sweetness comparison (conclusion): no significant difference in sweetness
Panelists [4]; Cola with 60% Sucrose + 3 ppm (8.47 μM) compound chosen
  Sample selected as sweeter by panelists, Total: 18
Panelists [4]; Cola with 66% Sucrose + 3.19 ppm (8.47 μM) compound chosen
  Sample selected as sweeter by panelists, Total: 22
Panelists [4]; cola with reduced sucrose + 3 ppm or 3.19 ppm compound vs 100% sucrose cola
  Sweetness comparison (statement): approximately the same sweetness
Panelists [5]; Chocolate Milk with 50% Sugar + compound (7 ppm/(20 μM)) chosen, vs 100% Sugar, n = 51
  Sample selected as sweeter by panelists, Total: 28
Panelists [5]; chocolate milk with 50% Sugar + compound (7 ppm/(20 μM)) vs full sugar, p>0.10
  Sweetness comparison (conclusion): not significantly different in sweetness
External panelists [6]; 25 μM compound in 6% fructose, LSB, pH 7.1
  off tastes: no significant off tastes
External panelists [6]; 30 μM (10.6 ppm) compound, no fructose, pH 7.1, n = 30
  Average Sweetness: 0.6
External panelists [6]; 30.0 μM and 40 μM compound
  off tastes: no significant off tastes
External panelists [6]; 30 μM compound, no fructose, n = 30
  Average Bitterness: 0.4
External panelists [6]; 30.0 μM compound, p>0.10
  Sweetness vs fructose solutions (conclusion): not significantly different in sweetness compared to 0% and 2% fructose respectively
External panelists [6]; 40 μM (14.2 ppm) compound, no fructose, pH 7.1, n = 30
  Average Sweetness: 1.1
External panelists [6]; 40 μM compound, no fructose, n = 30
  Average Bitterness: 0.6
External panelists [6]; 40 μM compound, p>0.10
  Sweetness vs fructose solutions (conclusion): not significantly different in sweetness compared to 0% and 2% fructose respectively
External panelists [6]; 100 μM compound in 6% fructose, LSB, pH 7.1
  off tastes: no significant off tastes
External panelists [6]; 6% Fructose + 25 μM (8.9 ppm) compound, pH 7.1, n = 26
  Average Sweetness: 7.8
External panelists [6]; 6% Fructose + 25 μM compound, n = 26
  Average Bitterness: 0.2
External panelists [6]; 6% Fructose + 100 μM (35.4 ppm) compound, pH 7.1, n = 14
  Average Sweetness: 9.2
External panelists [6]; 6% Fructose + 100 μM compound, n = 14
  Average Bitterness: 0.3
External panelists [6]; 6% fructose + 25 μM compound, p>0.05
  Sweetness vs fructose solutions (conclusion): significantly sweeter than 6% fructose
External panelists [6]; 6% fructose + 100 μM compound, p>0.10
  Sweetness vs fructose solutions (conclusion): not significantly different than 8% or 9% fructose
